Laboratory results taken from patent EP1734031A1, “NOVEL 2-(ALPHA-N-PENTANONYL)BENZOETES, THEIR PREPARATION AND USE” (priority 2004, dated 2005).

Key:
in vivo = details: mouse, po; for LD50 at 7 days: both, ICR
[1] = system: model rats of middle cerebral artery thrombosis (MCAT); test: Effects on cerebral infarct area of MCAT rats (TTC staining); format: in vivo, SD rats; details: for Cerebral infarct tissue weight/total brain weight: 24 hours after operation; for Inhibition (cerebral infarct): vs. model group; for cerebral infarct compared with the model group (in words): 50 mg/kg, P<0.05
[2] = system: model rats of middle cerebral artery thrombosis (MCAT); test: Effects on neural symptoms of MCAT rats (behavioral score); format: in vivo, SD rats; details: for Scores 24 hours: 24 hours after operation; for Scores 24 hours / Scores 6 hours: full mark 4; for % inhibition at hour 24 / alleviation on neural symptoms at 24 hours after the operation (in words): vs. model group; for alleviation on neural symptoms at 24 hours after the operation (in words): 50 mg/kg, P<0.01 or P<0.05; for Scores 6 hours: 6 hours after operation
[3] = Stability of aqueous solution (decomposed products by HPLC); format: physicochemical; details: aqueous solution 0.2 mg/ml, exposed to water for 24 hours
[4] = Thermal stability (purity by HPLC); details: 10 days at 60°C
Description: Tests were conducted for 10 days at 60°C in accordance with the testing method as described in Pharmacopoeia of P.R. China, 2000 ed., appendix XIX C of part two, "Guideline for testing the stability of medicament: method for testing thermal stability". The purity was determined in accordance with the test described in Pharmacopoeia of P.R. China, 2000 ed., appendix VD of part two, by using HPLC method, C18 column, mobile phase of acetonitrile:0.02M sodium dihydrogen phosphate = 40:60, detecting wavelength of 230 nm, flow rate of 1 ml/min.

[5] = Stability to light (purity by HPLC); details: light test, 10 days
Description: Tests were conducted for 10 days in accordance with the testing method as described in Pharmacopoeia of P.R. China, 2000 ed., appendix XIX C of part two, "Guideline for testing the stability of medicament: method for testing stability to light". The purity was determined in accordance with the test described in Pharmacopoeia of P.R. China, 2000 ed., appendix VD of part two, by using HPLC method, C18 column, mobile phase of acetonitrile:0.02M sodium dihydrogen phosphate = 40:60, detecting wavelength of 230 nm, flow rate of 1 ml/min.

[6] = system: thrombosis of artery-vein bypass in rats; test: Effects on thrombosis of artery-vein bypass in rats; format: in vivo, SD rats; details: for Dry-weight of thrombus / Wet-weight of thrombus: once per day for 3 days; for Inhibition (dry-weight of thrombus) / Inhibition (wet-weight of thrombus): vs. thrombus model group

CCCCC(O)c1ccccc1C(=O)O (stereo not drawn) [N,N'-dibenzylethylenediamine 2-(α-hydroxypentyl)benzoate] [listing 1 of 2 here]
LD50 at 168 h (in vivo): 2810 mg/kg

CCCCC(O)c1ccccc1C(=O)O (stereo not drawn) [N,N'-dibenzylethylenediamine 2-(α-hydroxypentyl)benzoate] [listing 2 of 2 here]
Cerebral infarct tissue weight/total brain weight ([1]; 50 mg/kg by gavage): 5.85±2.32% | Inhibition (cerebral infarct) ([1]; 50 mg/kg by gavage): 21.05% | Cerebral infarct tissue weight/total brain weight ([1]; 100 mg/kg by gavage): 5.50±1.82 % | Inhibition (cerebral infarct) ([1]; 100 mg/kg by gavage): 30.73% | Cerebral infarct tissue weight/total brain weight ([1]; 200 mg/kg by gavage): 5.09±2.14 % | Inhibition (cerebral infarct) ([1]; 200 mg/kg by gavage): 33.11% | Scores 24 hours ([2]; 50 mg/kg by gavage): 3.09±0.54 | % inhibition at hour 24 ([2]; 50 mg/kg by gavage): 15.11% | alleviation on neural symptoms at 24 hours after the operation (in words) [2]: significantly alleviation | Scores 24 hours ([2]; 100 mg/kg by gavage): 2.91±0.70 | Scores 6 hours ([2]; 200 mg/kg by gavage): 3.36±0.67 | Scores 24 hours ([2]; 200 mg/kg by gavage): 2.82±0.87 | % inhibition at hour 24 ([2]; 200 mg/kg by gavage): 24.40%

CCCCC(=O)c1ccccc1C(=O)[O-].[K+] [Potassium 2-(α-n-pentanonyl)benzoate, potassium 2-(α-n-pentanonyl)benzoate]
decomposed product [3]: no decomposed product | decomposed product (thermal stability) [4]: no decomposed product | Cerebral infarct tissue weight/total brain weight ([1]; 50 mg/kg by gavage): 5.63±1.52 % | Inhibition (cerebral infarct) ([1]; 50 mg/kg by gavage): 24.02% | cerebral infarct compared with the model group (in words) [1]: significantly reduced | Cerebral infarct tissue weight/total brain weight ([1]; 100 mg/kg by gavage): 5.09±2.04 % | Inhibition (cerebral infarct) ([1]; 100 mg/kg by gavage): 35.89% | Cerebral infarct tissue weight/total brain weight ([1]; 200 mg/kg by gavage): 4.38±1.54 % | Inhibition (cerebral infarct) ([1]; 200 mg/kg by gavage): 42.44% | LD50 at 7 days (in vivo): 2720 mg/kg | decomposed product (stability to light) [5]: no decomposed product | Dry-weight of thrombus ([6]; 50 mg/kg by gavage): 38.3 ± 15.4 mg | Wet-weight of thrombus ([6]; 50 mg/kg by gavage): 208.8 ± 45.3 mg | Inhibition (dry-weight of thrombus) ([6]; 50 mg/kg): 25.34% | Inhibition (wet-weight of thrombus) ([6]; 50 mg/kg): 19.44% | Dry-weight of thrombus ([6]; 100 mg/kg by gavage): 35.6 ± 14.0 mg | Wet-weight of thrombus ([6]; 100 mg/kg by gavage): 192.6 ± 41.2 mg | Inhibition (dry-weight of thrombus) ([6]; 100 mg/kg): 30.60% | Inhibition (wet-weight of thrombus) ([6]; 100 mg/kg): 25.69% | Dry-weight of thrombus ([6]; 200 mg/kg by gavage): 28.3 ± 16.3 mg | Wet-weight of thrombus ([6]; 200 mg/kg by gavage): 157.0 ± 51.4 mg | Inhibition (dry-weight of thrombus) ([6]; 200 mg/kg): 44.8% | Inhibition (wet-weight of thrombus) ([6]; 200 mg/kg): 39.43% | Inhibition (dry-weight of thrombus) ([6]; 200 mg/kg, listed as potassium 2-(α-n-pentanonyl)benzoate): 44.83% | Scores 6 hours ([2]; 50 mg/kg by gavage): 3.27±0.79 | Scores 24 hours ([2]; 50 mg/kg by gavage): 2.91±0.70 | % inhibition at hour 24 ([2]; 50 mg/kg by gavage): 20.05% | alleviation on neural symptoms at 24 hours after the operation (in words) [2]: significantly alleviation | Scores 6 hours ([2]; 100 mg/kg by gavage): 3.36±0.67 | Scores 24 hours ([2]; 100 mg/kg by gavage): 2.82±0.75 | % inhibition at hour 24 ([2]; 100 mg/kg by gavage): 24.40% | Scores 6 hours ([2]; 200 mg/kg by gavage): 3.20±0.63 | Scores 24 hours ([2]; 200 mg/kg by gavage): 2.10 ± 0.32 s | % inhibition at hour 24 ([2]; 200 mg/kg by gavage): 43.70%

CCCCC(=O)c1ccccc1C(=O)[O-].[Na+] [Sodium 2-(α-n-pentanonyl)benzoate, sodium 2-(α-n-pentanonyl)benzoate]
decomposed product [3]: no decomposed product | decomposed product (thermal stability) [4]: no decomposed product | Cerebral infarct tissue weight/total brain weight ([1]; 50 mg/kg by gavage): 5.26±2.26 % | Inhibition (cerebral infarct) ([1]; 50 mg/kg by gavage): 29.01% | cerebral infarct compared with the model group (in words) [1]: significantly reduced | Cerebral infarct tissue weight/total brain weight ([1]; 100 mg/kg by gavage): 4.99±1.83 % | Inhibition (cerebral infarct) ([1]; 100 mg/kg by gavage): 37.16% | Cerebral infarct tissue weight/total brain weight ([1]; 200 mg/kg by gavage): 5.19±2.40 % | Inhibition (cerebral infarct) ([1]; 200 mg/kg by gavage): 31.80% | LD50 at 7 days (in vivo): 2650 mg/kg | decomposed product (stability to light) [5]: no decomposed product | Dry-weight of thrombus ([6]; 50 mg/kg by gavage): 26.2 ± 9.7 mg | Wet-weight of thrombus ([6]; 50 mg/kg by gavage): 138.8 ± 41.1 mg | Inhibition (dry-weight of thrombus) ([6]; 50 mg/kg): 31.05% | Inhibition (wet-weight of thrombus) ([6]; 50 mg/kg): 34.31% | Dry-weight of thrombus ([6]; 100 mg/kg by gavage): 19.7 ± 7.8 mg | Wet-weight of thrombus ([6]; 100 mg/kg by gavage): 115.4 ± 42.3 mg | Inhibition (dry-weight of thrombus) ([6]; 100 mg/kg): 48.16% | Inhibition (wet-weight of thrombus) ([6]; 100 mg/kg): 45.39% | Dry-weight of thrombus ([6]; 200 mg/kg by gavage): 22.4 ± 10.1 mg | Wet-weight of thrombus ([6]; 200 mg/kg by gavage): 131.1 ± 48.0 mg | Inhibition (dry-weight of thrombus) ([6]; 200 mg/kg): 41.05% | Inhibition (wet-weight of thrombus) ([6]; 200 mg/kg): 37.96% | Scores 6 hours ([2]; 50 mg/kg by gavage): 3.40±0.70 | Scores 24 hours ([2]; 50 mg/kg by gavage): 3.00±0.67 | % inhibition at hour 24 ([2]; 50 mg/kg by gavage): 17.58% | alleviation on neural symptoms at 24 hours after the operation (in words) [2]: significantly alleviation | Scores 6 hours ([2]; 100 mg/kg by gavage): 3.10±0.74 | Scores 24 hours ([2]; 100 mg/kg by gavage): 2.80±0.79 | % inhibition at hour 24 ([2]; 100 mg/kg by gavage): 24.93% | Scores 6 hours ([2]; 200 mg/kg by gavage): 3.27±0.65 | Scores 24 hours ([2]; 200 mg/kg by gavage): 2.82±0.40 | % inhibition at hour 24 ([2]; 200 mg/kg by gavage): 24.40%
